Experiments:
[1] = system: adult rat ventricular myocytes; experiment: Cardiomyocyte contractility assay (fractional shortening, IonOptix); type: cell-based; details: 5 minutes perfusion, 1 Hz pacing
Description: Contractility of adult rat ventricular myocytes is determined by edge detection with an IonOptix contractility system. Aliquots of myocytes in Tyrode buffer (137 mM NaCl, 3.7 mM KCl, 0.5 mM MgCl2, 1.5 mM CaCl2, 4 mM HEPES, 11 mM glucose) are placed in a perfusion chamber (Series 20 RC-27NE; Warner Instruments), allowed to adhere to the coverslip, and then perfused with 37° C. Tyrode buffer. Myocytes are filed stimulated at 1 Hz and 10V. Only myocytes with clear striations, quiescent prior to pacing, with a cell length of 120-180 microns, a basal fractional shortening equal to 3-8% of the cell length, and a contraction velocity greater than 100 microns per second are used for contractility experiments. To determine the response to compounds, myocytes are first perfused for 60 seconds with Tyrodes buffer followed by 5 minutes of compound and a 140 second washout with Tyrodes buffer. Data is continuously recorded using IonOptix software. Contractility data is analyzed using Ionwizard software (IonOptix). For each cell, 10-20 contractility transients were averaged and compared under basal (no compound) and compound-treated conditions. Compound activity is measured by effects on fractional shortening (FS), where fractional shortening is the ratio of the peak length of the cell at contraction divided by the basal cell length normalized to 100% for an untreated cell.

[2] = DVS isotherm (hygroscopicity); type: physicochemical
[3] = target: bovine cardiac myosin (Bos taurus, UniProt Q9BE39); experiment: Myosin activation assay (PK/LDH-coupled ATPase, skinned myofibrils); type: biochemical; details: concentration at which total response is increased by twenty percent
Description: Small molecule agents were assessed for their ability to activate the enzymatic activity of bovine cardiac myosin using a biochemical assay that couples the release of ADP (adenosine diphosphate) from cardiac myosin to an enzymatic coupling system consisting of pyruvate kinase and lactate dehydrogenase (PK/LDH) and monitoring the absorbance decrease of NADH (at 340 nm) as a function of time. PK converts ADP to ATP (adenosine triphosphate) by converting PEP (phosphoenolpyruvate) to pyruvate. Pyruvate is then converted to lactate by LDH by converting NADH (nicotinamide adenine dinucleotide) to NAD (oxidized nicotinamide adenine dinucleotide). […] Prior to testing small molecule agents, the bovine myofibrils were assessed for their calcium responsiveness and the calcium concentration that achieves either a 50% (pCa50 or pCa=˜6) or <5% (pCa=10) activation of the myofibril system was chosen as the final condition for assessing the activation activity of the small molecule agents. […]
A dilution series of compound was created in DMSO such that the final desired concentration of compound would be achieved in a volume of […] with a fixed DMSO concentration of 3.3% (v/v). […] The reaction progress was followed in a PerkinElmer Envision plate reader at ambient temperature using clear bottom plates. The plate reader was configured to read absorbance at 340 nm in kinetics mode for 15 minutes. […]

[4] = Polymorph relative stability, interconversion slurring experiments; type: physicochemical

Sequence of bovine cardiac myosin (Q9BE39 whole entry): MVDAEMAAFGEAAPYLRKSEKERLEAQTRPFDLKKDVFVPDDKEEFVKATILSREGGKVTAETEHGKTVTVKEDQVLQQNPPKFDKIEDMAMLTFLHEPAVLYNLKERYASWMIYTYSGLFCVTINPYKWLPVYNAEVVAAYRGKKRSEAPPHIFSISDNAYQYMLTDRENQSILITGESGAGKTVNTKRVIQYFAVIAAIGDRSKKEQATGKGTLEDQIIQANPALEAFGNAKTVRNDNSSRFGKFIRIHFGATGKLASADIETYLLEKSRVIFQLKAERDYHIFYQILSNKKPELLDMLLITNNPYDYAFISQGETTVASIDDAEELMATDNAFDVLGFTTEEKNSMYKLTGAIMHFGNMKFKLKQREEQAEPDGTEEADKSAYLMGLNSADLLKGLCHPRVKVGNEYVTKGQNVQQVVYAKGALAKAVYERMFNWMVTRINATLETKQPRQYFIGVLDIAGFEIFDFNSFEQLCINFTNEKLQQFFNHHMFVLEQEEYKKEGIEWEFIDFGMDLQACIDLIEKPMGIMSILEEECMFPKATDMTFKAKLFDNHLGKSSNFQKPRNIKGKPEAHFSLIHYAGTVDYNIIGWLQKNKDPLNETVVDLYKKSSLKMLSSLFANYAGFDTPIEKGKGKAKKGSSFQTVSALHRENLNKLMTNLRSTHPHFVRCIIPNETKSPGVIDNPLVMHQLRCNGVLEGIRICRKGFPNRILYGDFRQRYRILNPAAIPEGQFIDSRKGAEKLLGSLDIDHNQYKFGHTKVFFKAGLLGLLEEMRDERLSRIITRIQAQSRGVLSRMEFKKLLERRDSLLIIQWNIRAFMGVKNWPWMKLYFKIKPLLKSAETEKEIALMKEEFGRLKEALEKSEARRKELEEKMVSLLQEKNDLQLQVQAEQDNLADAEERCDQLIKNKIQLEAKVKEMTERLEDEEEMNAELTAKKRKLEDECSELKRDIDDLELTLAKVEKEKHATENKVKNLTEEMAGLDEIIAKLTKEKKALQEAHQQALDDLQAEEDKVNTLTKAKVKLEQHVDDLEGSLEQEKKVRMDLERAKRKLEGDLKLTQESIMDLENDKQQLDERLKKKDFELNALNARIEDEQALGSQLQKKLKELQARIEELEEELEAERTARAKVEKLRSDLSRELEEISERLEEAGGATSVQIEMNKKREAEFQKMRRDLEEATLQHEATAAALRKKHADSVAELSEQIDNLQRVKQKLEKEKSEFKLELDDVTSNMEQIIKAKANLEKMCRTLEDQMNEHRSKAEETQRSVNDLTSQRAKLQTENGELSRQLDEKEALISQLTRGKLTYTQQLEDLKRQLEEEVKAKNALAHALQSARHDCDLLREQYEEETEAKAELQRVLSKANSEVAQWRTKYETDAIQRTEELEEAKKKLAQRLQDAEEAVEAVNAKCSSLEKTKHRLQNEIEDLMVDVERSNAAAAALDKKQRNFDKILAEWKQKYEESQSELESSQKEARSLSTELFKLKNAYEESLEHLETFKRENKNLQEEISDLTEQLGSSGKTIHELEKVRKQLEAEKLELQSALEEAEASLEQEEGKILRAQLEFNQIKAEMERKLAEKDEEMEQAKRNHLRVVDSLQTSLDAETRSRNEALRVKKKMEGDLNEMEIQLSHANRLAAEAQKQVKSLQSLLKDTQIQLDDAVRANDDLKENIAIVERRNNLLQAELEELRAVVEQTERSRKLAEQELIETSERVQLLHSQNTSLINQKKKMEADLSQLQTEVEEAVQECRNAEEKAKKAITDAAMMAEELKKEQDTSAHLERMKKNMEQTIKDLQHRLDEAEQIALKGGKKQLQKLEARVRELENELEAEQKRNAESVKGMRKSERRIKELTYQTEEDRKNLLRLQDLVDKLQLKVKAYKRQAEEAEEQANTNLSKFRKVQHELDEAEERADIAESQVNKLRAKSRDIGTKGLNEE
Sequence of bovine cardiac myosin (P85100 whole entry partner): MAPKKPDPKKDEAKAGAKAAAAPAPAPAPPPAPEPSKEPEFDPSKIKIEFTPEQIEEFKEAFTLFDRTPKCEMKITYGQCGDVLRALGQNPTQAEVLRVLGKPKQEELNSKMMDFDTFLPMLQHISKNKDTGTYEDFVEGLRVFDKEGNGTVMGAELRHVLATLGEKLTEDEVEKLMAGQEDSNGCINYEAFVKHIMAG
Sequence of bovine cardiac myosin (Q3SZE5 whole entry partner): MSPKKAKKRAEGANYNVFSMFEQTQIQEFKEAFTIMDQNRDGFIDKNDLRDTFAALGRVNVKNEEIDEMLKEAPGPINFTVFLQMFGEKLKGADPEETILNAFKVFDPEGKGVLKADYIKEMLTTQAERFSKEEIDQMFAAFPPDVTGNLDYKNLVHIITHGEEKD

Row | SMILES | Activity at 3.0 uM (fractional shortening activation over basal) ([1]; 3.0 uM compound) | Activity at 10 uM (fractional shortening activation over basal) ([1]; 10 uM compound) | Hygroscopic character (DVS isotherm) [2] | Myosin Activation (AC20) [3] | Relative stability of polymorphs ([4]; 1:1 (w/w) forms A+εD and B slurried 18 hours in acetonitrile and water mixture, range of RT to 70° C.) | Polymorph stability ranking ([4]; compared to Form A, Form C, and Form D)
1 | Cn1cc(S(=O)(=O)[C@@](C)(F)C2CCN(C(=O)Nc3ccon3)CC2)c(C(F)F)n1 [Form A, (R)-4-(1-((3-(difluoromethyl)-1-methyl-1H-pyrazol-4-yl)sulfonyl)-1-fluoroethyl)-N-(isoxazol-3-yl)piperidine-1-carboxamide] | + (fractional shorting activation <20% over basal) | ++ (fractional shorting activation values from 20% to 50% over basal) | non-hygroscopic | +++ (myosin activation value AC20 < 2 μM) |  | 
2 | Cn1cc(S(=O)(=O)[C@@](C)(F)C2CCN(C(=O)Nc3ccon3)CC2)c(C(F)F)n1 [Form B, (R)-4-(1-((3-(difluoromethyl)-1-methyl-1H-pyrazol-4-yl)sulfonyl)-1-fluoroethyl)-N-(isoxazol-3-yl)piperidine-1-carboxamide] |  |  | nonhygroscopic |  | more stable compared to Form A | most stable polymorph
